Assay: Plasma exposure after oral administration of formulations in rats (LC-MS/MS, WinNonlin)
Protocol: In this study, the exposure and distribution of darunavir and efavirenz were evaluated following oral administration in male Sprague-Dawley rats. Four cohorts of 10 rats each were used in this study. The first cohort involved darunavir using the disclosed formulations and the second cohort darunavir in a control formulation. The third cohort involved efavirenz using the disclosed formulations and the fourth cohort efavirenz in a control formulation.
Formulations were administered orally (PO) at 10 mg/kg of darunavir or efavirenz. Following dosing, blood, urine and fecal samples were collected up to 8-hour post dose (groups 1, 3, 5, and 7) or 24-hour post dose (groups 2, 4, 6, and 8). Brain tissue was collected at 8 hours or 24 hours, following the 8 hour or 24-hour urine and feces sample collection. Plasma, urine, feces, and brain tissue concentrations of the analytes were determined by LC-MS/MS. Plasma pharmacokinetic parameters were determined using WinNonlin (v8.0) software.
Plasma, urine, feces, and brain tissue samples were extracted and analyzed using the methods described as follows.
Analytical stock solutions (1.00 mg/mL of the free drug) were prepared in DMSO. Sample Homogenization Brain tissue and feces samples were homogenized with a Virsonic 100 ultrasonic homogenizer. Each brain tissue sample was first weighed, and then an appropriate volume of 20:80 methanol:water was added to make a 2 mL/gram sample. Samples were then homogenized on ice, and stored frozen until analysis. Feces samples were homogenized with 20:80 MeOH:water (8 mL/gram of tissue) prior to extraction. Standard Preparation (Plasma, Urine, and Brain) Standards were prepared in rat plasma containing sodium heparin as the anticoagulant, or in blank tissue homogenate. Working solutions were prepared in 50:50 acetonitrile:water. […] Diluted urine samples were quantified against the rat plasma calibration curve. Brain and feces tissue homogenates were quantified against calibration curves prepared in matched blank tissue homogenate.

## CC(C)CN(C[C@@H](O)[C@H](Cc1ccccc1)NC(=O)O[C@H]1CO[C@H]2OCC[C@H]21)S(=O)(=O)c1ccc(N)cc1 [darunavir]
Disclosed compositions compared with compositions without the bioavailability agents
  plasma concentration of disclosed compositions versus control formulations: double
Test animals (disclosed test formulation), at 1 hour
  average plasma concentration: approximately 306 ng/mL

## O=C1Nc2ccc(Cl)cc2[C@@](C#CC2CC2)(C(F)(F)F)O1 [efavirenz]
rat, in vivo
  plasma concentration of disclosed compositions versus control formulations: higher levels

Source: patent publication US11311559B2, “Compositions and methods for enhanced delivery of antiviral agents” (POVIVA CORP., priority 2020, dated 2022)
